# Measured values published in patent US20100069340A1, “PHARMACEUTICAL COMPOSITIONS OF AN SRC KINASE INHIBITOR AND AN AROMATASE INHIBITOR” (Wyeth, priority 2008, published 2010).
# Experiments:
# [1] = tested on: MCF7; assay: Cell proliferation assay (CellTiter Glo), MCF7; assay type: cell-based
# Procedure: (§1) Cell lines were obtained from ATCC. Estrogen was obtained from SIGMA, 4-hydroxytamoxifen was obtained from SIGMA, Bosutinib was used for these studies. Charcoal-stripped serum and phenol red-free medium was obtained from Invitrogen. CellTiter Glo was obtained from Promega.
# (§2) Cell cultures. Proliferation assays with cells in complete fetal calf serum were performed with medium containing phenol red. For all assays examining estrogen-dependence, cells were cultured in phenol red-free medium; DMEM/F12 (MCF7), RPMI1640 (MDA-MB-361, T47D) MEM (BT20, MDA-MB-231) McCoys5A modified (SKBR3), Leibowitz' L15 medium supplemented with 10 ng/mL insulin (MDA-MB-435 and MDA-MB-468) with 10% fetal bovine serum supplemented with glutamine and gentamicin. For proliferation assays, trypsinized cells were subjected to three cycles of centrifugation and resuspension in phenol red-free medium supplemented with charcoal stripped medium (5% final), glutamine and Pen/Strep. Cells were plated on day 0, with or without estrogen (10 nM final concentration). On day 1, 4-hydroxytamoxifen and SKI-606 or DMSO were added as a serial dilution. Cells were incubated for 7 days, after which CellTiter Glo (Promega) was added as recommended by the manufacturer. After mixing and two hours incubation on the bench, plates were read on an Envision reader. […] The 10 uM data point was dropped for these two lines since there was a clear plateau prior to the sharp drop in luminescence observed at 10 uM compound. The IC50 was calculated using a floating minima corresponding to the lowest luminescence value at 5 uM.
# (§3) Cell proliferation assays were performed in two formats; a three day proliferation assay in fully supplemented medium with phenol red, and a 7 day proliferation assay in phenol red free medium supplemented with charcoal-stripped medium. […] ER positive T47D cells were slightly more sensitive to SKI-606 in the presence of estrogen. BT20 cells were equally sensitive to SKI-606 in stripped serum medium, regardless of whether estrogen was present.
# (§4) Proliferation data for SKI-606 in various breast tumor lines in complete medium (10% FCS) and charcoal stripped serum with no phenol red (no E2, E2) with and without 10 nM estrogen. The complete medium data were obtained in 3-day assays, while stripped serum assays were extended for 7 days with one change of medium at day 5. The IC50 values for the BT20 line was calculated using the “plateau” cell number evident at 5 μM SKI-606.
# [2] = tested on: MDA-MB-361; assay: Cell proliferation assay (CellTiter Glo), MDA-MB-361; assay type: cell-based
# Procedure: as §1, §2, §3, §4
substance,measurement,setting,value
4-hydroxytamoxifen,estrogen-independent cell proliferation,"[1]; MCF7, absence of estrogen",inhibits
same,effect on estrogen-stimulated proliferation,"[1]; MCF7, presence of estrogen",inhibited in a dose-dependent manner
same,cell proliferation in the absence of estrogen,"[2]; MDA-MB-361, absence of estrogen",little effect
same,effect on estrogen-stimulated proliferation,"[2]; MDA-MB-361, presence of estrogen",inhibited in a dose-dependent manner
